Among the test systems are SF-295; Malme-3M; SK-OV-3; SF-268; M14; HCT-116; SK-MEL-2; MCF7; SF-539; CCRF-CEM; UACC-257; KM12; HCT-15; TK-10; OVCAR-8; SK-MEL-5; OVCAR-3; OVCAR-5; MDA-N; SW-620.
Holding throughout (experiment): NCI tumour cell line growth inhibition, 48 h

The record followed here is ChEMBL document CHEMBL1201862, “PubChem BioAssay data set” (2004).

Structures are written as SMILES.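 48-hour exposure; five concentrations; linearly interpolated endpoints. GI50 = concentration required for 50% inhibition of growth.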 Active and inactive are the calls of the source. Cut-off read from the data, not from the text of the source: active = GI50 up to about 1.1 µM and inactive = higher.

With `CN1CCN(CCCCNc2cc3c4ccccc4c(NCCCCN4CCN(C)CC4)cc3c3ccccc23)CC1`, the GI50 in the assay on SF-295 is 1.78 µM (inactive); in the assay with Malme-3M it was 2.15 µM (inactive); in the assay on SK-OV-3 it was 14.6 µM (inactive); with SF-268 it was 1.9 µM (inactive); with M14 it was 0.895 µM (active); in the assay with HCT-116 it was 0.604 µM (active). Also, the GI50 with SK-MEL-2 is 5.05 µM (inactive); with MCF7, 1.34 µM (inactive); in the assay with SF-539, 1.94 µM (inactive); in the assay with CCRF-CEM, 0.703 µM (active); with UACC-257, 4.79 µM (inactive); with KM12 it was 1.55 µM (inactive). The GI50 in the assay on HCT-15 was 1.34 µM; with TK-10 it was 6.95 µM (inactive); in the assay with OVCAR-8, 1.88 µM (inactive); with SK-MEL-5, 1.44 µM (inactive); in the assay with OVCAR-3, 2.98 µM (inactive); in the assay on OVCAR-5, 5.56 µM (inactive). For the same compound, the GI50 in the assay on MDA-N was 0.317 µM (active); with SW-620, 1.43 µM (inactive).

Regarding `CC(C)(C)c1ccc(C(O)(c2ccc(C(C)(C)C)cc2)c2ccc(C(C)(C)C)cc2)cc1`, the GI50 in the assay on SF-295 is > 100 µM (inactive); with Malme-3M it was 6.92 µM (inactive); with SK-OV-3 it was > 100 µM (inactive); in the assay on SF-268, > 100 µM (inactive); in the assay on M14, > 100 µM (inactive); in the assay with HCT-116, > 100 µM (inactive). Besides, the GI50 with SK-MEL-2 was > 100 µM (inactive); in the assay on MCF7 it was > 100 µM (inactive); in the assay with SF-539, > 100 µM (inactive); in the assay with CCRF-CEM, > 100 µM (inactive); in the assay with KM12, > 100 µM (inactive); with HCT-15 it was over 100 µM. Also, the GI50 with TK-10, in the assay with OVCAR-8, with SK-MEL-5, with OVCAR-3, with OVCAR-5 and in the assay on MDA-N was > 100 µM (inactive) throughout. Moreover, the GI50 with SW-620 is > 100 µM (inactive).

As to `CCOc1ccc2nc(NC(=O)/C(CC(=O)CC(C3=C(O)c4ccccc4CC3=O)c3ccccc3)=N\O)sc2c1` (stereo not given), the GI50 in the assay with SF-295, in the assay on Malme-3M, in the assay with SK-OV-3, in the assay with SF-268, in the assay with M14 and with HCT-116 was > 100 µM (inactive) throughout. The GI50 in the assay with SK-MEL-2, in the assay with MCF7, in the assay with SF-539, in the assay with CCRF-CEM, in the assay on UACC-257 and with KM12 was > 100 µM (inactive) each time. The GI50 in the assay with HCT-15 was over 100 µM; in the assay with OVCAR-8 it was > 100 µM (inactive); in the assay on SK-MEL-5 it was > 100 µM (inactive); in the assay with OVCAR-3 it was > 100 µM (inactive); with OVCAR-5, > 100 µM (inactive); in the assay on MDA-N, > 100 µM (inactive). In addition, the GI50 in the assay with SW-620 was > 100 µM (inactive).

Turning to `C=C[C@@H]1C(CO)=CCC2[C@H]1CCC1C(C)(C)C(=O)CC[C@]21C` (stereo not given in full), the GI50 in the assay on SF-295, in the assay on Malme-3M, with SK-OV-3, in the assay with SF-268, in the assay with M14 and in the assay with HCT-116 was > 100 µM (inactive) throughout. In addition, the GI50 in the assay on SK-MEL-2, with MCF7, in the assay on SF-539, in the assay on CCRF-CEM, with UACC-257 and with KM12 was > 100 µM (inactive) in each case. Also, the GI50 in the assay with HCT-15 is over 100 µM; in the assay with TK-10, > 100 µM (inactive); in the assay on SK-MEL-5, > 100 µM (inactive); in the assay on OVCAR-3, > 100 µM (inactive); in the assay with OVCAR-5, > 100 µM (inactive); with MDA-N, > 100 µM (inactive). Also, the GI50 with SW-620 is > 100 µM (inactive).

For the compound `COC(=O)C1C(O)CCC2CN3CCc4c([nH]c5cccc(OC)c45)C3CC21` (stereo not given), the GI50 in the assay on SF-295, with Malme-3M, in the assay on SK-OV-3, in the assay on SF-268, in the assay with M14 and in the assay on HCT-116 was > 100 µM (inactive) each time. For the same compound, the GI50 with SK-MEL-2, with MCF7, in the assay on SF-539, in the assay on CCRF-CEM, with UACC-257 and in the assay on KM12 was > 100 µM (inactive) each time. The GI50 was over 100 µM with HCT-15; > 100 µM (inactive) in the assay with TK-10; > 100 µM (inactive) in the assay on OVCAR-8; > 100 µM (inactive) in the assay on OVCAR-3; > 100 µM (inactive) with OVCAR-5; > 100 µM (inactive) in the assay on MDA-N. Further, the GI50 in the assay on SW-620 is > 100 µM (inactive).

`CC(NC1=NCCO1)c1ccsc1` (stereo not given): the GI50 in the assay on SF-295 is 17.8 µM (inactive); in the assay with Malme-3M it was 21 µM (inactive); with SK-OV-3 it was 71.8 µM (inactive); in the assay on M14, 17.6 µM (inactive); with HCT-116 it was 16.4 µM (inactive); in the assay with SK-MEL-2 it was 21.9 µM (inactive). Besides, the GI50 was 34.8 µM (inactive) in the assay on MCF7; 16.2 µM (inactive) with SF-539; 19.4 µM (inactive) in the assay with CCRF-CEM; 14.4 µM (inactive) in the assay on UACC-257; 18.8 µM (inactive) in the assay with KM12; 40.7 µM with HCT-15. The GI50 in the assay on TK-10 is 65.5 µM (inactive); in the assay with OVCAR-8, 28.6 µM (inactive); with SK-MEL-5, 20 µM (inactive); in the assay with OVCAR-3, 28.8 µM (inactive); in the assay on OVCAR-5, > 100 µM (inactive); in the assay with MDA-N, 24.2 µM (inactive). In addition, the GI50 in the assay on SW-620 is 21.5 µM (inactive).

Turning to `CC(=O)c1sc2c(c1OC(=O)c1ccco1)c(=O)n(-c1ccccc1)c(=S)n2-c1ccccc1`, the GI50 in the assay on SF-295 is 5.16 µM (inactive); in the assay on Malme-3M, 5.08 µM (inactive); with SK-OV-3, 16 µM (inactive); with SF-268, 23.2 µM (inactive); with M14 it was 8.11 µM (inactive); with HCT-116 it was 18.2 µM (inactive). Moreover, the GI50 in the assay on SK-MEL-2 was 10.4 µM (inactive); in the assay on MCF7, 22.6 µM (inactive); in the assay on SF-539 it was 4.19 µM (inactive); in the assay with CCRF-CEM it was 3.93 µM (inactive); with UACC-257, 27.5 µM (inactive); with KM12, 21.1 µM (inactive). For the same compound, the GI50 is 18.7 µM with HCT-15; 31.8 µM (inactive) in the assay with TK-10; 30.3 µM (inactive) in the assay on OVCAR-8; 5.81 µM (inactive) with SK-MEL-5; 32.8 µM (inactive) with OVCAR-3; 24.8 µM (inactive) with MDA-N. In addition, the GI50 in the assay on SW-620 is 26.6 µM (inactive).

For `NC(=O)N/N=C\CC(O)(C(F)(F)Cl)C(F)(F)Cl`, the GI50 in the assay with SF-295, in the assay on Malme-3M, with SK-OV-3, in the assay with SF-268, in the assay on M14 and in the assay on HCT-116 was > 10 µM (inactive) throughout. Moreover, the GI50 with SK-MEL-2, in the assay on MCF7, with SF-539, in the assay on CCRF-CEM, with UACC-257 and with KM12 was > 10 µM (inactive) throughout. Besides, the GI50 in the assay on HCT-15 was over 10 µM; in the assay on TK-10 it was > 10 µM (inactive); in the assay on OVCAR-8 it was > 10 µM (inactive); with SK-MEL-5 it was > 10 µM (inactive); in the assay with OVCAR-3, > 10 µM (inactive); with MDA-N it was > 10 µM (inactive). In addition, the GI50 in the assay on SW-620 was > 10 µM (inactive).

As for `O=C1Nc2c(Cl)cc(Cl)cc2/C1=N/N=C/c1ccco1`, the GI50 was 31.7 µM (inactive) in the assay on SF-295; 56.6 µM (inactive) in the assay on Malme-3M; 67.3 µM (inactive) in the assay on SK-OV-3; 34.7 µM (inactive) with M14; 33 µM (inactive) in the assay on HCT-116; 24.4 µM (inactive) in the assay with SK-MEL-2. In addition, the GI50 was 20.2 µM (inactive) in the assay with MCF7; 29.1 µM (inactive) in the assay with SF-539; 29 µM (inactive) with CCRF-CEM; 44 µM (inactive) in the assay with UACC-257; 25.4 µM (inactive) in the assay with KM12; 28.8 µM in the assay on HCT-15. For the same compound, the GI50 was 48.5 µM (inactive) with TK-10; 22.8 µM (inactive) with OVCAR-8; 29.6 µM (inactive) in the assay on SK-MEL-5; 24.7 µM (inactive) in the assay on OVCAR-3; 61 µM (inactive) in the assay with OVCAR-5; 18.9 µM (inactive) in the assay on MDA-N. Moreover, the GI50 in the assay with SW-620 was 37 µM (inactive).

For the compound `C=C(C)[C@H]1CC[C@@]23O[C@@H]2[C@@H](C[C@@]2(C)CC(=O)[C@H](CC(=O)C1)O2)OC(=O)[C@@]12CC[C@H](C(=C)C)CC(=O)C[C@H]4O[C@](C)(CC4=O)C[C@@H](OC3=O)[C@@H]1O2` [SINGARDIN], the GI50 with SF-295, in the assay on Malme-3M, with SK-OV-3, in the assay with M14, in the assay on HCT-116 and in the assay on SK-MEL-2 was > 100 µM (inactive) throughout. In addition, the GI50 in the assay with MCF7 is > 100 µM (inactive); with SF-539, > 100 µM (inactive); in the assay on CCRF-CEM, 91.8 µM (inactive); in the assay with UACC-257, > 100 µM (inactive); in the assay on KM12 it was 52.5 µM (inactive); with HCT-15 it was over 100 µM. The GI50 with TK-10 is > 100 µM (inactive); with OVCAR-8 it was > 100 µM (inactive); in the assay on SK-MEL-5, 74.5 µM (inactive); with OVCAR-3, > 100 µM (inactive); in the assay on OVCAR-5, > 100 µM (inactive); with MDA-N, > 100 µM (inactive).
